Test results as given in the supplement of paper PMC10307832.

Key:
Assay in all cases: relative viability (nuclei count vs DMSO), 5 days (fraction); higher = more cells survive
Tipifarnib + Linsitinib = compound: Cn1cncc1[C@@](N)(c1ccc(Cl)cc1)c1ccc2c(c1)c(-c1cccc(Cl)c1)cc(=O)n2C [Tipifarnib] + C[C@]1(O)C[C@@H](c2nc(-c3ccc4ccc(-c5ccccc5)nc4c3)c3c(N)nccn32)C1 [Linsitinib] (partner 1 µM)
In short: (§1)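 For relative viability, nuclei counts in treated wells were divided by those in vehicle wells. Lung cancer cell lines had been pin-tool dosed in 1536-well plates the day after seeding and cultured for 5 days, then fixed and stained in one step (final 0.05% Triton X-100, 1% formaldehyde, 1 ug/ml Hoechst) and imaged at 4×. Doses were one drug alone or a fixed anchor-drug dose plus five library-drug doses (not always all listed) in √10 steps, and values are duplicate-plate medians.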

Tipifarnib + Foretinib = compound: Cn1cncc1[C@@](N)(c1ccc(Cl)cc1)c1ccc2c(c1)c(-c1cccc(Cl)c1)cc(=O)n2C [Tipifarnib] + COc1cc2c(Oc3ccc(NC(=O)C4(C(=O)Nc5ccc(F)cc5)CC4)cc3F)ccnc2cc1OCCCN1CCOCC1 [Foretinib] (partner 0.25 µM)
In short: as §1

Tipifarnib + Luminespib = compound: Cn1cncc1[C@@](N)(c1ccc(Cl)cc1)c1ccc2c(c1)c(-c1cccc(Cl)c1)cc(=O)n2C [Tipifarnib] + CCNC(=O)c1noc(-c2cc(C(C)C)c(O)cc2O)c1-c1ccc(CN2CCOCC2)cc1 [Luminespib] (partner 0.01 µM)
In short: as §1

Tipifarnib + Navitoclax = compound: Cn1cncc1[C@@](N)(c1ccc(Cl)cc1)c1ccc2c(c1)c(-c1cccc(Cl)c1)cc(=O)n2C [Tipifarnib] + CC1(C)CCC(c2ccc(Cl)cc2)=C(CN2CCN(c3ccc(C(=O)NS(=O)(=O)c4ccc(N[C@H](CCN5CCOCC5)CSc5ccccc5)c(S(=O)(=O)C(F)(F)F)c4)cc3)CC2)C1 [Navitoclax] (partner 0.5 µM)
In short: as §1

| Cell Line | relative viability (Tipifarnib + Linsitinib; first compound 0.01 µM) | relative viability (Tipifarnib + Linsitinib; first compound 0.03162 µM) | relative viability (Tipifarnib + Linsitinib; first compound 0.1 µM) | relative viability (Tipifarnib + Linsitinib; first compound 0.3162 µM) | relative viability (Tipifarnib + Linsitinib; first compound 1 µM) | relative viability (Tipifarnib + Foretinib; first compound 0.01 µM) | relative viability (Tipifarnib + Foretinib; first compound 0.03162 µM) | relative viability (Tipifarnib + Foretinib; first compound 0.1 µM) | relative viability (Tipifarnib + Foretinib; first compound 0.3162 µM) | relative viability (Tipifarnib + Foretinib; first compound 1 µM) | relative viability (Tipifarnib + Luminespib; first compound 0.01 µM) | relative viability (Tipifarnib + Luminespib; first compound 0.03162 µM) | relative viability (Tipifarnib + Luminespib; first compound 0.1 µM) | relative viability (Tipifarnib + Luminespib; first compound 0.3162 µM) | relative viability (Tipifarnib + Luminespib; first compound 1 µM) | relative viability (Tipifarnib + Navitoclax; first compound 0.01 µM) | relative viability (Tipifarnib + Navitoclax; first compound 0.03162 µM) | relative viability (Tipifarnib + Navitoclax; first compound 0.1 µM) | relative viability (Tipifarnib + Navitoclax; first compound 0.3162 µM) | relative viability (Tipifarnib + Navitoclax; first compound 1 µM) |
| --- | --- | --- | --- | --- | --- | --- | --- | --- | --- | --- | --- | --- | --- | --- | --- | --- | --- | --- | --- | --- |
| NCI-H358 | 0.782 | 0.691 | 0.664 | 0.512 | 0.48 | 0.884 | 0.761 | 0.563 | 0.433 | 0.296 | 0.246 | 0.297 | 0.212 | 0.212 | 0.214 |  |  |  |  |  |
| NCI-H522 |  |  |  |  |  |  |  |  |  |  | 0.831 | 1.33 | 1.18 | 1.08 | 1.27 |  |  |  |  |  |
| NCI-H650 | 0.825 | 0.706 | 0.662 | 0.526 | 0.348 | 1.21 | 0.999 | 0.934 | 0.749 | 0.704 | 0.888 | 0.697 | 0.61 | 0.57 | 0.442 |  |  |  |  |  |
| NCI-H661 | 0.754 | 0.616 | 0.502 | 0.511 | 0.438 | 1.03 | 1.03 | 0.936 | 0.793 | 0.83 | 0.898 | 0.844 | 0.847 | 0.713 | 0.669 |  |  |  |  |  |
| NCI-H1299 | 1.06 | 0.886 | 0.906 | 0.803 | 0.635 | 1.06 | 1.04 | 1 | 0.947 | 0.979 |  |  |  |  |  | 0.966 | 0.969 | 0.977 | 0.88 | 0.828 |
| NCI-H1563 | 1.13 | 1.13 | 1.13 | 1.03 | 1.14 | 1.03 | 1.04 | 0.879 | 0.82 | 0.87 | 0.491 | 0.558 | 0.538 | 0.519 | 0.526 |  |  |  |  |  |
| NCI-H1650 |  |  |  |  |  | 0.766 | 0.633 | 0.668 | 0.424 | 0.554 | 0.19 | 0.208 | 0.189 | 0.203 | 0.184 | 0.666 | 0.352 | 0.402 | 0.291 | 0.289 |
| NCI-H1703 | 0.84 | 0.323 | 0.145 | 0.274 | 0.373 | 0.343 | 0.247 | 0.325 | 0.267 | 0.294 |  |  |  |  |  | 1.1 | 0.563 | 0.27 | 0.359 | 0.364 |
| NCI-H1792 | 0.436 | 0.453 | 0.257 | 0.207 | 0.233 |  |  |  |  |  | 0.505 | 0.329 | 0.379 | 0.268 | 0.262 | 0.717 | 0.583 | 0.466 | 0.364 | 0.108 |
| NCI-H2170 |  |  |  |  |  | 1.03 | 1.06 | 1.01 | 0.99 | 0.896 | 0.406 | 0.555 | 0.619 | 0.282 | 0.691 | 0.733 | 0.566 | 0.448 | 0.433 | 0.338 |
| NCI-H2342 |  |  |  |  |  | 1.06 | 0.984 | 0.884 | 0.824 | 0.771 | 0.689 | 0.669 | 0.635 | 0.569 | 0.51 |  |  |  |  |  |
